Assay [1] deals with Dual specificity tyrosine-phosphorylation-regulated kinase 1A (Homo sapiens, UniProt Q13627). The experiment in a line: Selectivity interaction (Ambit KINOMEscan and KiNATiv profiling in Jurkat cells) EUB0000090b DYRK1A. To be noted: at 1 µM. The format is cell-based.
Assay [2] has as its target T1, Phosphatidylinositol 3-kinase C2 domain-containing subunit gamma (Homo sapiens) (UniProt O75747).
T1 sequence (whole entry): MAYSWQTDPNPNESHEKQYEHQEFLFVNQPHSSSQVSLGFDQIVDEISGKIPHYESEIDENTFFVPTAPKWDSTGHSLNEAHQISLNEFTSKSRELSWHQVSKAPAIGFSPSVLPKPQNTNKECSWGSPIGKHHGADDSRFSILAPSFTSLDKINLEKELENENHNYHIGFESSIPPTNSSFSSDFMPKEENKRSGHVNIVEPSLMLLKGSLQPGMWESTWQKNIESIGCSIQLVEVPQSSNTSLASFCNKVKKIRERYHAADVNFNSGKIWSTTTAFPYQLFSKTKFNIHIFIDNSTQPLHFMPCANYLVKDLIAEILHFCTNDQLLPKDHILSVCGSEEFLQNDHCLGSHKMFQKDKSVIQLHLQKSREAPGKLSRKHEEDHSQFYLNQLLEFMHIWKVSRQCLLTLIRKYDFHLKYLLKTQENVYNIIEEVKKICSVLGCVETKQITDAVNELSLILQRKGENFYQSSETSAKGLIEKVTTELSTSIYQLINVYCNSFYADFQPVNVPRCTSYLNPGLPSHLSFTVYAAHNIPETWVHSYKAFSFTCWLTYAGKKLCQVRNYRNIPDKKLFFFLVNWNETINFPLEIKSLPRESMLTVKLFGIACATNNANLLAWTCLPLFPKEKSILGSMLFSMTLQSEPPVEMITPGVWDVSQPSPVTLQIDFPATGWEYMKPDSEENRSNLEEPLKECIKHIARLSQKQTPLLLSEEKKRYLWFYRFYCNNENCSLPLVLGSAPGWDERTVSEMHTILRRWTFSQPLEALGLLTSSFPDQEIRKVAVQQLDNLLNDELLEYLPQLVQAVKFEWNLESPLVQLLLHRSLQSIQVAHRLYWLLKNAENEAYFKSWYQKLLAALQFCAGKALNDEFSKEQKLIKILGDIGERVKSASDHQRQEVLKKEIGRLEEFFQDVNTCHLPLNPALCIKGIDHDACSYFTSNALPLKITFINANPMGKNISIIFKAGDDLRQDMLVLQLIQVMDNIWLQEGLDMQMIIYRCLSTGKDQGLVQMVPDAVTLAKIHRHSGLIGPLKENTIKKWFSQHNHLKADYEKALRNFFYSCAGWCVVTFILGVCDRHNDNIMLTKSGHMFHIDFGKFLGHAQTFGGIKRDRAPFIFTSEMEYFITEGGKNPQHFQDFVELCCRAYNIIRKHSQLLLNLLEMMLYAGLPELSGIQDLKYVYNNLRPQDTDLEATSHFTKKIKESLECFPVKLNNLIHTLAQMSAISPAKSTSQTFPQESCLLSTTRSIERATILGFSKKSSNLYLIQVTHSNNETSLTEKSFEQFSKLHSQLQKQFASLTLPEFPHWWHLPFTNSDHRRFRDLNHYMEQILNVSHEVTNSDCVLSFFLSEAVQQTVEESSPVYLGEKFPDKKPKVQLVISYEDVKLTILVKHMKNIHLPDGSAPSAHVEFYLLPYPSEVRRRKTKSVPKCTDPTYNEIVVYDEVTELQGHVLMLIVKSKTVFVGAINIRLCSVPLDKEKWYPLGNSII
The experiment in a line: Selectivity interaction (Kinase panel (Eurofins)) EUB0001564a PIK3C2G. To be noted: at 1 µM.

The target in assay [3] is Serine/threonine-protein kinase tousled-like 2 (Homo sapiens) (UniProt Q86UE8). The experiment in a line: Selectivity interaction (KinomeScan (DiscoverX)) EUB0000695a TLK2. To be noted: at 100 nM.
Sequence of Serine/threonine-protein kinase tousled-like 2 (Homo sapiens) (Q86UE8 whole entry, looked up): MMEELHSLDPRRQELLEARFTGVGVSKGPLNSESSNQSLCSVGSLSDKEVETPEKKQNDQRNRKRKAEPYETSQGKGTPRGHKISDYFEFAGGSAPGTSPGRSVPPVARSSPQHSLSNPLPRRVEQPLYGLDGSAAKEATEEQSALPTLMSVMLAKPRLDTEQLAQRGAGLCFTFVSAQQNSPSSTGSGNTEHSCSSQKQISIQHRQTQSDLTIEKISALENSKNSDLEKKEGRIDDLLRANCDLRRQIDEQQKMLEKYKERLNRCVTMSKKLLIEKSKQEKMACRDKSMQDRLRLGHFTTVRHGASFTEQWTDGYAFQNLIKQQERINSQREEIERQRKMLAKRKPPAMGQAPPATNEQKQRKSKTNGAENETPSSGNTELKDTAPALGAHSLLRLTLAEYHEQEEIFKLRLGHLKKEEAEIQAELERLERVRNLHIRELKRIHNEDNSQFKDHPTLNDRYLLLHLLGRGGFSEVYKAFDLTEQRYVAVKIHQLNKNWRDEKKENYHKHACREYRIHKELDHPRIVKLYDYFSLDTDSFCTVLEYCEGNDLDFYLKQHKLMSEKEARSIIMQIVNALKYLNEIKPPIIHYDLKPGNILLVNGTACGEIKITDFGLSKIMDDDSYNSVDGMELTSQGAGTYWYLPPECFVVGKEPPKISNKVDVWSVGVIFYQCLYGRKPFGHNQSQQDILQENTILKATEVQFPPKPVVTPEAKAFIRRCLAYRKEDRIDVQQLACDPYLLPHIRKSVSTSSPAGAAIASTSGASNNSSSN
Assay [4] has as its target Serine/threonine-protein kinase VRK2 (Homo sapiens) (UniProt Q86Y07). The experiment in a line: Selectivity interaction (KinomeScan (DiscoverX)) EUB0000045b VRK2.
In assay [5] the target is T2, Serine/threonine-protein kinase ULK3 (Homo sapiens) (UniProt Q6PHR2).
T2 sequence (whole entry): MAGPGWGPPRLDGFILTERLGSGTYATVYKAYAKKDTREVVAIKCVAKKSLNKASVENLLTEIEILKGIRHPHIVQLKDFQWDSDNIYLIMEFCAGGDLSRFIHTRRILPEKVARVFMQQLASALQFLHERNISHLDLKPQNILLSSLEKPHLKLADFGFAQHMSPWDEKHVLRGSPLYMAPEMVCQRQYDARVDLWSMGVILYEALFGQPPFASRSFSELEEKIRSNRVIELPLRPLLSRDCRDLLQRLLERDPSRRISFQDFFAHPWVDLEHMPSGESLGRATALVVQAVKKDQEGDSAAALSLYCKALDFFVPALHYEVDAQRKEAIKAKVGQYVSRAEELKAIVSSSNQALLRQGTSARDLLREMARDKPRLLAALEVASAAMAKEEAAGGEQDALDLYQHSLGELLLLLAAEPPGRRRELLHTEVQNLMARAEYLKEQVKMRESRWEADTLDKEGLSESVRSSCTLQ
The experiment in a line: Selectivity interaction (KinomeScan (DiscoverX)) EUB0000666a ULK3. As to conditions: at 10 µM.

For assay [6], the system named is Tyrosine-protein kinase ABL1 (Homo sapiens), P00519 [H396P]. Briefly: Selectivity interaction (KinomeScan (DiscoverX)) EUB0000607a ABL1. As to conditions: at 10 µM.
The target of assay [7] is Casein kinase I isoform gamma-3 (Homo sapiens) (UniProt Q9Y6M4). The experiment in a line: Selectivity interaction (SelectScreen profiling (Invitrogen)) EUB0000607a CSNK1G3. As to conditions: at 2 µM.
Sequence of Casein kinase I isoform gamma-3 (Homo sapiens) (Q9Y6M4 whole entry, looked up, canonical isoform): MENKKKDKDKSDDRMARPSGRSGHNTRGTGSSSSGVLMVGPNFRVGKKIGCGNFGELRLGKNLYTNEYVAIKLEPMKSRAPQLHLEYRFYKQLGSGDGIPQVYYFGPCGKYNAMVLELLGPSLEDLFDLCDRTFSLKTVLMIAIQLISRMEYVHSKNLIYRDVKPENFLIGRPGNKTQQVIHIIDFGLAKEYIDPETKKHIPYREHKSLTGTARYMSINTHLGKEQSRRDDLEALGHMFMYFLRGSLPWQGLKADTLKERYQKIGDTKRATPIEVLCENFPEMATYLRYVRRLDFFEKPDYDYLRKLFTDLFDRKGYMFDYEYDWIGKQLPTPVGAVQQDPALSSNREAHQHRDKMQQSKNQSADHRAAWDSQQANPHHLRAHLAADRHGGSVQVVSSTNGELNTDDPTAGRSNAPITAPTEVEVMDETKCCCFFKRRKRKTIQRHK
Assay [8] addresses Protein-tyrosine kinase 2-beta (Homo sapiens) (UniProt Q14289). Briefly: Selectivity interaction (ActivX KiNativ screen (kinase selectivity in THP-1 cell lysates)) EUB0000639a PTK2B. To be noted: lysate, at 1 µM. In kind it is subcellular.
For assay [9], the target named is Sphingosine kinase 1 (Homo sapiens) (UniProt Q9NYA1). Briefly: Selectivity interaction (Kinase panel (Invitrogen)) EUB0000639a SPHK1. As to conditions: at 200 nM.
Sequence of Sphingosine kinase 1 (Homo sapiens) (Q9NYA1 whole entry): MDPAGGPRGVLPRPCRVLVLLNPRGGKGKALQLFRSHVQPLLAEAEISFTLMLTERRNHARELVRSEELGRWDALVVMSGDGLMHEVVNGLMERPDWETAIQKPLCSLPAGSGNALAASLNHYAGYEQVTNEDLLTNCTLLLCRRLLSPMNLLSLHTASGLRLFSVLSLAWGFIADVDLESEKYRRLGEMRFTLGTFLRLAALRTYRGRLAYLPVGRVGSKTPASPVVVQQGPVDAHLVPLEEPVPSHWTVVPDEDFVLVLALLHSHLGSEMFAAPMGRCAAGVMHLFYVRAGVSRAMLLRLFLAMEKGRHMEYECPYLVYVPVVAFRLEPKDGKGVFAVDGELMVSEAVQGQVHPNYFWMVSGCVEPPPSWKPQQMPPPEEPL
Assay [10] has as its target Tyrosine-protein kinase CSK (Homo sapiens) (UniProt P41240). The experiment in a line: Selectivity interaction (ActivX KiNativ screen (kinase selectivity in THP-1 cell lysates)) EUB0000639a CSK. To be noted: lysate, at 0.04 µM. The format is subcellular.

Sequence of Serine/threonine-protein kinase VRK2 (Homo sapiens) (Q86Y07 whole entry): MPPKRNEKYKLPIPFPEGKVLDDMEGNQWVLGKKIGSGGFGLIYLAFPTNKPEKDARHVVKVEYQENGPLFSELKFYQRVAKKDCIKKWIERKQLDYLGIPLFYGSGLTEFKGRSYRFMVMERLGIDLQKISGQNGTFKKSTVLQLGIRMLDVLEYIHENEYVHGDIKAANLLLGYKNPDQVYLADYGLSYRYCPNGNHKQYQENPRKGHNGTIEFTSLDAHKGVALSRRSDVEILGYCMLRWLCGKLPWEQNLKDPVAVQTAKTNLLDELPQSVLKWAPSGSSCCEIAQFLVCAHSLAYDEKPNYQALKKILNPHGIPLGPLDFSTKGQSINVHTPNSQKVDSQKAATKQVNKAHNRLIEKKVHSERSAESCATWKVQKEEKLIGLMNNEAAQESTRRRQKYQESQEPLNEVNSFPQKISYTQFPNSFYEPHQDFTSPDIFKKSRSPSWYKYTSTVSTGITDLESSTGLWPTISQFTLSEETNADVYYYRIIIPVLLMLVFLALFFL
Sequence of Protein-tyrosine kinase 2-beta (Homo sapiens) (Q14289 whole entry, looked up): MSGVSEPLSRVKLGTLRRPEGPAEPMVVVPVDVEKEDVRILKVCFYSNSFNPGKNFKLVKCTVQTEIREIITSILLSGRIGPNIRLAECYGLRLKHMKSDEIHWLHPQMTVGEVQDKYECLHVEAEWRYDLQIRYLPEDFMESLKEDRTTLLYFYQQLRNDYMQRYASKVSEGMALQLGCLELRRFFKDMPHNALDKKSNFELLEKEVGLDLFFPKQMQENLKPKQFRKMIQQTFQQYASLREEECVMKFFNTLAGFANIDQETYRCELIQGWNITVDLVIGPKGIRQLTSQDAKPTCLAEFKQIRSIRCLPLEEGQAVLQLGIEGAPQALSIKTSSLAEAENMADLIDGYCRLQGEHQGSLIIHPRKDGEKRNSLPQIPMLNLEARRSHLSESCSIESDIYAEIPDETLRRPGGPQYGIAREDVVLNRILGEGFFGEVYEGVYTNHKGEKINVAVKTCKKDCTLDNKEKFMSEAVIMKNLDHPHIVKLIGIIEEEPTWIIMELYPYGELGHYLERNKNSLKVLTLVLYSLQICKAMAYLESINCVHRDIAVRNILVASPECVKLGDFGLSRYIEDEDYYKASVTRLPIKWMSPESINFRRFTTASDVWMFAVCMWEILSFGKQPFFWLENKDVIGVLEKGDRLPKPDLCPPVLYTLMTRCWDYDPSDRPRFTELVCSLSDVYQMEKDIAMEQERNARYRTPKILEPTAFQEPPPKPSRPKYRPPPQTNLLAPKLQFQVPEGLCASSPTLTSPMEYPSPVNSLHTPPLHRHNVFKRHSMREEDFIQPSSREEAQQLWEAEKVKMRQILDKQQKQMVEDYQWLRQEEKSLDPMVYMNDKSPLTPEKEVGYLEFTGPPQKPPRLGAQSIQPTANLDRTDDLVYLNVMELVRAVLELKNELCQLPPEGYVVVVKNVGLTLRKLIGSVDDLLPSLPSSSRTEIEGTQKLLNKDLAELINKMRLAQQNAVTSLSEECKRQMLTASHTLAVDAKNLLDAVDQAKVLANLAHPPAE
Sequence of Tyrosine-protein kinase CSK (Homo sapiens) (P41240 2-450 limits assumed): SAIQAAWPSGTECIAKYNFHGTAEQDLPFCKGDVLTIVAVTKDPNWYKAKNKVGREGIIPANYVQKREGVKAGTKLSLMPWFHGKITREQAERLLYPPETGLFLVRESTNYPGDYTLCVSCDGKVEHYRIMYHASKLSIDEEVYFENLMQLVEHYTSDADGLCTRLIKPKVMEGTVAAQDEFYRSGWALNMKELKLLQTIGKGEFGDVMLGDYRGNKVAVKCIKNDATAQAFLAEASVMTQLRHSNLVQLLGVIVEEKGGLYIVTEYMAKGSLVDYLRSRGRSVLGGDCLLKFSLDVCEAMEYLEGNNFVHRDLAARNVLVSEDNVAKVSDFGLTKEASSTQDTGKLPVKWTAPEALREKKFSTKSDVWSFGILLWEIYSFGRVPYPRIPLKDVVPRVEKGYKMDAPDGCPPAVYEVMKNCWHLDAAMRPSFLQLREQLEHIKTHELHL

In [1], `CN(C)C/C=C/C(=O)Nc1ccc(C(=O)N2CCCC(Nc3ncc(Cl)c(-c4c[nH]c5ccccc45)n3)C2)cc1` (stereo unspecified) displayed a % of control of 30%.
As to `CC[C@@H](Nc1c(C#N)c(-c2ccc(-c3cccc(C)c3F)cc2)nc2cnccc12)C(=O)O` [BAY-091], the % of inhibition in [2] worked out at 25.4%.
As to `Cc1cc(F)c(C(=O)Nc2cccc(-c3nncn3C(C)C)n2)cc1-n1cnc(C2CC2)c1`, the % of control in [3] is 100%.
With `C=CC(=O)Nc1cc(-n2c(=O)ccc3cnc4ccc(-c5ccc(NS(C)(=O)=O)cc5)cc4c32)ccc1C`, the % of control in assay [4] (at 1 µM) came out at 100%; in [4] (at 10 µM), 86%.
With `O=C(NOC[C@H](O)CO)c1ccc(F)c(F)c1Nc1ccc(I)cc1F`, the % of control in assay [5] came to 89%.
Turning to `CNC(=O)Nc1ccc(-c2nc(N3CC4CCC(C3)O4)c3cnn(C4CCC5(CC4)OCCO5)c3n2)cc1`, the % of control in assay [6] turned out to be 100%. Besides, the % of inhibition in [7] is -1%.
With `CC[C@@H]1[C@H](F)C(=O)N[C@@H]1COc1nccc2cc(C(N)=O)c(OC)cc12` [ZIMLOVISERTIB], the % of inhibition was -3.6% in assay [8], 2.77% in [9] and 7.9% in [10].
